Assay [1] has as its system MRSA USF659. Briefly: Kirby-Bauer agar disk diffusion. As to conditions: 20 μg on 6 mm disk, 24 h at 37° C., triplicate.
Assay [2] relates to MRSA USF919 (ATCC 43300). Description: Kirby-Bauer agar disk diffusion. Particulars: 20 μg on 6 mm disk, 24 h at 37° C., triplicate. (Agar diffusion results depend on both activity and mobility in agar.)
In assay [3] the test system is MRSA USF652. Briefly: Kirby-Bauer agar disk diffusion. As to conditions: 20 μg on 6 mm disk, 24 h at 37° C., triplicate.
For assay [4], the system named is MRSA USF656. Description: Kirby-Bauer agar disk diffusion. Particulars: 20 μg on 6 mm disk, 24 h at 37° C., triplicate.
The test system of assay [5] is MRSA USF657. Description: Kirby-Bauer agar disk diffusion. As to conditions: 20 μg on 6 mm disk, 24 h at 37° C., triplicate.
The test system of assay [6] is S. aureus 849 (ATCC 25923). Description: Kirby-Bauer agar disk diffusion. Particulars: for zone of growth inhibition, average diameter: S. aureus 849 (ATCC 25923), 20 μg on 6 mm disk, 24 h at 37° C., triplicate; for S. aureus (Inhibition), median zone of inhibition: S. Aureaus strain 849, c = partial inhibition within this diameter.
Assay [7] has as its system MRSA USF653. Briefly: Kirby-Bauer agar disk diffusion. Particulars: 20 μg on 6 mm disk, 24 h at 37° C., triplicate.
Assay [8] concerns MRSA USF654. Description: Kirby-Bauer agar disk diffusion. Particulars: 20 μg on 6 mm disk, 24 h at 37° C., triplicate.
The test system of assay [9] is MRSA USF920 (ATCC 33591). Description: Kirby-Bauer agar disk diffusion. Particulars: 20 μg on 6 mm disk, 24 h at 37° C., triplicate.
Assay [10] concerns MRSA USF658. Description: Kirby-Bauer agar disk diffusion. As to conditions: 20 μg on 6 mm disk, 24 h at 37° C., triplicate.
The subject of assay [11] is MRSA USF655. Description: Kirby-Bauer agar disk diffusion. As to conditions: 20 μg on 6 mm disk, 24 h at 37° C., triplicate.
Assay [12] deals with 10 strains of MRSA (652-659, 919-920). Briefly: Kirby-Bauer zones of inhibition, 10 strains of MRSA. Particulars: for MRSA (inhibition), median diameter of zone of inhibition: median of 10 strains of MRSA (652-659, 919-920), c = partial inhibition within this diameter.
For assay [13], the system named is B. globigii. Description: Kirby-Bauer agar disk diffusion. As to conditions: 20 μg on 6 mm disk, 24 h at 37° C., triplicate. The assay is classed as cell-based.
The subject of assay [14] is Bacillus anthracis (Sterne strain). The format is cell-based. As to conditions: B. anthracis (Sterne strain); 20 μg on 6 mm disk; 24 h at 37° C.; triplicate.
The test system of assay [15] is B. thurigensis. Description: Kirby-Bauer agar disk diffusion. The assay is classed as cell-based. As to conditions: 20 μg on 6 mm disk, 24 h at 37° C., triplicate.
Assay [16] has as its system B. subtilus. Briefly: Kirby-Bauer agar disk diffusion. The assay is classed as cell-based. Particulars: 20 μg on 6 mm disk, 24 h at 37° C., triplicate.
The test system of assay [17] is B. megaterium. Briefly: Kirby-Bauer agar disk diffusion. The assay is classed as cell-based. Particulars: 20 μg on 6 mm disk, 24 h at 37° C., triplicate.
In assay [18] the test system is B. cereus. Briefly: Kirby-Bauer agar disk diffusion. The assay is classed as cell-based. Particulars: 20 μg on 6 mm disk, 24 h at 37° C., triplicate.
Assay [19] relates to B. coagulans. Briefly: Kirby-Bauer agar disk diffusion. The format is cell-based. Particulars: 20 μg on 6 mm disk, 24 h at 37° C., triplicate.
Assay [20] deals with MRSA. Briefly: Broth MIC. The format is cell-based, Staphylococcus aureus.
The subject of assay [21] is S. aureus. Description: Broth MIC. The format is cell-based, Staphylococcus aureus.

Marks after values point to notes of the source that are not given here.

Take `CCC(C)SN1CC(CCl)OC1=O` (stereo not drawn) [compound 5]: the “zone of growth inhibition, average diameter” value (“zone of growth inhibition” for short) in assay [1] turned out to be 20 mm; in assay [2] it was 19 mm; in assay [3], 19 mm; in [4], 20 mm; in assay [5], 22 mm; in assay [6], 19 mm. Further, the “zone of growth inhibition” value in [7] came out at 20 mm; in [8] it was 22 mm; in assay [9], 19 mm; in assay [10], 21 mm; in assay [11] it was 22 mm.

Turning to `CSN1C(=O)OC[C@H]1C(C)C` [compound 9], the “zone of growth inhibition” value in [1] worked out at 22 mm; in assay [2], 13 mm; in assay [3], 12 mm; in assay [4] it was 20 mm; in [13], 17 mm; in assay [14], 15 mm. For the same compound, the “zone of growth inhibition” value was found to be 0 mm in assay [15]; 19 mm in assay [5]; 19 mm in [16]; 10 mm in assay [17]; 21 mm in [6]; 15 mm in [18]. The “zone of growth inhibition” value in assay [7] came out at 25 mm; in assay [8], 20 mm; in [9], 15 mm; in assay [19], 0 mm; in [10], 19 mm; in assay [11], 18 mm. The “clarity of growth inhibition zones” value in assay [12] (Kirby-Bauer, anti-MRSA, compared with S-stereoisomer 8) is on record as “incomplete growth inhibition”.

For `CSN1C(=O)OC[C@@H]1c1ccccc1` [oxazolidinone 6, 4S-(+)-N-methylthio-4-phenyl-2-oxazolidinone], the “MRSA (inhibition), median diameter of zone of inhibition” value (“MRSA (inhibition), median diameter” for short) in assay [12] is 29 mm. In addition, in assay [6], the “S. aureus (Inhibition), median zone of inhibition” value (“S. aureus (Inhibition)” below) was 30 mm.

With `CSN1C(=O)OC[C@@H]1c1ccccc1` [compound 6], the “zone of growth inhibition” value in assay [1] was 26 mm; in assay [2], 30 mm; in assay [3], 30 mm; in [4] it was 31 mm; in assay [13], 15 mm; in assay [14], 23 mm. The “zone of growth inhibition” value worked out at 17 mm in [15]; 29 mm in assay [5]; 19 mm in [16]; 18 mm in [17]; 30 mm in assay [6]; 24 mm in [18]. Further, the “zone of growth inhibition” value is 31 mm in assay [7]; 29 mm in assay [8]; 28 mm in assay [9]; 17 mm in assay [19]; 29 mm in assay [10]; 29 mm in [11].

With `CC1(C)S[C@@H]2[C@H](NC(=O)Cc3ccccc3)C(=O)N2[C@H]1C(=O)O` [Pen G, penicillin G, reference compound], the “zone of growth inhibition” value turned out to be 16 mm in assay [1]; 8 mm in assay [3]; 12 mm in assay [4]; 12 mm in assay [5]; 33 mm in [6]; 15 mm in assay [7]. Also, the “zone of growth inhibition” value in assay [8] was determined as 10 mm; in [10], 19 mm; in [11], 14 mm.

Consider `CSN1C(=O)OC[C@@H]1C(C)C` [oxazolidinone 8], for which the “MRSA (inhibition), median diameter” value in [12] was 16^c mm. For the same compound, the “S. aureus (Inhibition)” value in assay [6] is on record as 20^c mm.

With `CSN1C(=O)OC[C@@H]1C(C)C` [compound 8], the “zone of growth inhibition” value in assay [1] was 22 mm; in [2] it was 21 mm; in assay [3], 19 mm; in assay [4] it was 22 mm; in assay [13], 15 mm; in [14] it was 23 mm. The “zone of growth inhibition” value amounted to 16 mm in [15]; 22 mm in assay [5]; 17 mm in [16]; 18 mm in assay [17]; 20 mm in assay [6]; 22 mm in [18]. The “zone of growth inhibition” value was 27 mm in assay [7]; 23 mm in assay [8]; 18 mm in [9]; 17 mm in assay [19]; 16 mm in [10]; 22 mm in assay [11]. Moreover, the “broth MIC value” in [20] and in assay [21] was 16 µg/mL each time.

As to `CSN1C(=O)OC[C@H]1c1ccccc1` [oxazolidinone 7, 4R-(−)-N-methylthio-4-phenyl-2-oxazolidinone], in [12], the “MRSA (inhibition), median diameter” value stood at 28 mm. Moreover, in [6], the “S. aureus (Inhibition)” value is on record as 29 mm.

In the case of `COC1C(=O)N(SC)C1c1ccccc1` (racemic) [Lac, reference compound], the “zone of growth inhibition” value is given as 24 mm in assay [1]; 30 mm in assay [3]; 28 mm in assay [4]; 27 mm in assay [5]; 25 mm in [6]; 30 mm in assay [7]. Moreover, the “zone of growth inhibition” value is listed as 26 mm in [8], 26 mm in assay [10] and 25 mm in assay [11].

For the compound `CSN1C(=O)OC[C@H]1c1ccccc1` [compound 7], the “zone of growth inhibition” value in assay [1] was determined as 26 mm; in assay [2], 28 mm; in assay [3], 30 mm; in [4], 28 mm; in [13], 17 mm; in assay [14] it was 23 mm. Further, the “zone of growth inhibition” value in assay [15] came out at 15 mm; in [5] it was 27 mm; in [16], 19 mm; in [17], 20 mm; in assay [6] it was 29 mm; in [18] it was 23 mm. The “zone of growth inhibition” value in assay [7] stood at 30 mm; in assay [8], 26 mm; in assay [9] it was 28 mm; in [19] it was 17 mm; in [10], 27 mm; in assay [11], 28 mm. Besides, the “broth MIC value” in [20] and in assay [21] was 8 µg/mL each time.

On to `CSN1C(=O)OC[C@H]1C(C)C` [oxazolidinone 9, 4R-(+)-N-methylthio-4-isopropyl-2-oxazolidinone], for which the “MRSA (inhibition), median diameter” value in [12] was 19^c mm. Further, the “S. aureus (Inhibition)” value in assay [6] is on record as 21^c mm.
